These results are taken from patent publication US20260124214A1, “HETEROCYCLIC COMPOUNDS FOR USE IN THE TREATMENT OF CANCER” (ARTIOS PHARMA LIMITED, priority 2021, published 2026).

Counter-ions that a name gives are not always drawn.

In this test the target is T1, Human Polθ polymerase domain (aa1820-2590) (Homo sapiens, UniProt O75417).
T1 construct: Human Polθ polymerase domain (aa1820-2590) was expressed in E. Coli; made in house; host or cells: E. coli
T1 sequence (O75417 1820-2590): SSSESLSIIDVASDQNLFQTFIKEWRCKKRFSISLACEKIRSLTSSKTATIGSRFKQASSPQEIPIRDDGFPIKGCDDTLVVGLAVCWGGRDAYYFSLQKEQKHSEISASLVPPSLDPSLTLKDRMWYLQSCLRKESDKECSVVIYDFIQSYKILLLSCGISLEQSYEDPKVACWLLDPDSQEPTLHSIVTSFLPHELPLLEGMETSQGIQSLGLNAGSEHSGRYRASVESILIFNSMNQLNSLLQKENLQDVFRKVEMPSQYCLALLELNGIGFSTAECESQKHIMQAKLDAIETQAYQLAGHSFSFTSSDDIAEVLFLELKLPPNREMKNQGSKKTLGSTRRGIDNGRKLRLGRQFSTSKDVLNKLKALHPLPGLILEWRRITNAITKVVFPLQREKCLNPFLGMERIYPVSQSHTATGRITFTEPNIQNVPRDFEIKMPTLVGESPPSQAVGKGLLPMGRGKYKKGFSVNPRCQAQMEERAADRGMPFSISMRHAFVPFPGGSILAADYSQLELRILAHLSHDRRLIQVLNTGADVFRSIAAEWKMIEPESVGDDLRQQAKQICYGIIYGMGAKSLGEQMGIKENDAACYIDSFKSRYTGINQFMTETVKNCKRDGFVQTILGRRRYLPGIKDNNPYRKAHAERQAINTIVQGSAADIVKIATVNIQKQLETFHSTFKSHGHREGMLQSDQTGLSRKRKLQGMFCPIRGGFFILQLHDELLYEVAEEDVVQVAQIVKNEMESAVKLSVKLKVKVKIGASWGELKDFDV
Description: Polθ Polymerase Domain WT KI Assay (PicoGreen). The class given is biochemical. The conditions noted are these: 100 nM DNA substrate, 0.156 nM Polθ, initial rates vs inhibitor concentration. The method in brief:
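E. coli-expressed human Polθ polymerase domain (aa1820-2590) on annealed DNA II Short/Long primer-template (1.2:1), in 25 mM Tris pH 7.5, NaCl, 5% glycerol, 0.01% Triton X-100, 0.1 mg/ml BSA, 1 mM DTT, 1% DMSO. EDTA-quenched timepoints to 180 min, PicoGreen fluorescence. Initial rates vs inhibitor concentration fitted four-parameter for KI.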
Compound `Cc1cc(C(F)(F)F)cc(N2C(=O)C[C@@H]3CN(Cc4nc5n(n4)CCNC5)c4c(F)cccc4N(C)C(=O)[C@H]32)n1` [Example 98, (3aR,11aS)-6-Fluoro-10-methyl-1-(6-methyl-4-(trifluoromethyl)pyridin-2-yl)-5-((5,6,7,8-tetrahydro-[1,2,4]triazolo[1,5-a]pyrazin-2-yl)methyl)-1,3a,4,5,10,11a-hexahydro-2H-benzo[b]pyrrolo[2,3-f][1,4]diazocine-2,11(3H)-dione] displayed a Ki of 4.91 nM. On to `Cc1cc(C(F)(F)F)cc(N2C(=O)C[C@@H]3CN(C[C@@H]4CCNC4)c4c(Cl)cccc4N(C)C(=O)[C@H]32)n1` [Example 99, (3aR,11aS)-6-Chloro-10-methyl-1-(6-methyl-4-(trifluoromethyl)pyridin-2-yl)-5-(((R)-pyrrolidin-3-yl)methyl)-1,3a,4,5,10,11a-hexahydro-2H-benzo[b]pyrrolo[2,3-f][1,4]diazocine-2,11(3H)-dione hydrochloride], for which the affinity, expressed as Ki, was 3.05 nM. Turning to `Cc1cc(C(F)(F)F)cc(N2C(=O)C[C@@H]3CN(C[C@H]4CCNC4)c4c(Cl)cccc4N(C)C(=O)[C@H]32)n1` [Example 100, (3aR,11aS)-6-Chloro-10-methyl-1-(6-methyl-4-(trifluoromethyl)pyridin-2-yl)-5-(((S)-pyrrolidin-3-yl)methyl)-1,3a,4,5,10,11a-hexahydro-2H-benzo[b]pyrrolo[2,3-f][1,4]diazocine-2,11(3H)-dione hydrochloride], affinity was put at a Ki of 1.75 nM. Regarding `Cc1cc(C(F)(F)F)cc(N2C(=O)C[C@@H]3CN(Cc4nnc5n4CCNC5)c4c(Cl)cccc4N(C)C(=O)[C@H]32)n1` [Example 101, (3aR,11aS)-6-Chloro-10-methyl-1-(6-methyl-4-(trifluoromethyl)pyridin-2-yl)-5-((5,6,7,8-tetrahydro-[1,2,4]triazolo[4,3-a]pyrazin-3-yl)methyl)-1,3a,4,5,10,11a-hexahydro-2H-benzo[b]pyrrolo[2,3-f][1,4]diazocine-2,11(3H)-dione hydrochloride], the Ki is 3.73 nM. With `Cc1cc(C(F)(F)F)cc(N2C(=O)C[C@@H]3CN(C[C@@H]4CCNC4)c4c(C)cccc4N(C)C(=O)[C@H]32)n1` [Example 103, (3aR,11aS)-6,10-Dimethyl-1-(6-methyl-4-(trifluoromethyl)pyridin-2-yl)-5-(((R)-pyrrolidin-3-yl)methyl)-1,3a,4,5,10,11a-hexahydro-2H-benzo[b]pyrrolo[2,3-f][1,4]diazocine-2,11(3H)-dione hydrochloride], the affinity corresponds to a Ki of 2.43 nM. The compound `Cc1cc(C(F)(F)F)cc(N2C(=O)C[C@@H]3CN(C[C@H]4CCNC4)c4c(C)cccc4N(C)C(=O)[C@H]32)n1` [Example 104, (3aR,11aS)-6,10-Dimethyl-1-(6-methyl-4-(trifluoromethyl)pyridin-2-yl)-5-(((S)-pyrrolidin-3-yl)methyl)-1,3a,4,5,10,11a-hexahydro-2H-benzo[b]pyrrolo[2,3-f][1,4]diazocine-2,11(3H)-dione hydrochloride] gave a Ki of 2.95 nM.

In the case of `Cc1cc(C(F)(F)F)cc(N2C(=O)C[C@@H]3CN(CC4CCCNC4)c4c(Cl)cccc4N(C)C(=O)[C@H]32)n1` (stereo partly drawn) [Example 110, (3aR,11aS)-6-Chloro-10-methyl-1-(6-methyl-4-(trifluoromethyl)pyridin-2-yl)-5-(piperidin-3-ylmethyl)-1,3a,4,5,10,11a-hexahydro-2H-benzo[b]pyrrolo[2,3-f][1,4]diazocine-2,11(3H)-dione], affinity was put at a Ki of 2.08 nM. As to `Cc1cc(C(F)(F)F)cc(N2C(=O)C[C@@H]3CN(CC[C@H]4CCNC4)c4c(Cl)cccc4N(C)C(=O)[C@H]32)n1` [Example 111, (3aR,11aS)-6-Chloro-10-methyl-1-(6-methyl-4-(trifluoromethyl)pyridin-2-yl)-5-(2-((R)-pyrrolidin-3-yl)ethyl)-1,3a,4,5,10,11a-hexahydro-2H-benzo[b]pyrrolo[2,3-f][1,4]diazocine-2,11(3H)-dione hydrochloride], the Ki amounted to 0.619 nM. Compound `Cc1cc(C(F)(F)F)cc(N2C(=O)C[C@@H]3CN(Cc4cc5n(n4)CCN(C)C5)c4c(C)cccc4N(C)C(=O)[C@H]32)n1` [Example 113, (3aR,11aS)-6,10-Dimethyl-5-((5-methyl-4,5,6,7-tetrahydropyrazolo[1,5-a]pyrazin-2-yl)methyl)-1-(6-methyl-4-(trifluoromethyl)pyridin-2-yl)-1,3a,4,5,10,11a-hexahydro-2H-benzo[b]pyrrolo[2,3-f][1,4]diazocine-2,11(3H)-dione] came in with a Ki of 0.237 nM. The value for `Cc1cc(C(F)(F)F)cc(N2C(=O)C[C@@H]3CN(Cc4ccncc4)c4c(C)cccc4N(C)C(=O)[C@H]32)n1` [Example 114, (3aR,11aS)-6,10-Dimethyl-1-(6-methyl-4-(trifluoromethyl)pyridin-2-yl)-5-(pyridin-4-ylmethyl)-1,3a,4,5,10,11a-hexahydro-2H-benzo[b]pyrrolo[2,3-f][1,4]diazocine-2,11(3H)-dione] was 1.64 nM; that for `Cc1cc(C(F)(F)F)cc(N2C(=O)C[C@@H]3CN(Cc4cccnc4)c4c(C)cccc4N(C)C(=O)[C@H]32)n1` [Example 115, (3aR,11aS)-6,10-Dimethyl-1-(6-methyl-4-(trifluoromethyl)pyridin-2-yl)-5-(pyridin-3-ylmethyl)-1,3a,4,5,10,11a-hexahydro-2H-benzo[b]pyrrolo[2,3-f][1,4]diazocine-2,11(3H)-dione] was 1.08 nM; that for `Cc1cc(C(F)(F)F)cc(N2C(=O)C[C@@H]3CN(Cc4cn5c(n4)CN(C)CC5)c4c(C)cccc4N(C)C(=O)[C@H]32)n1` [Example 121, (3aR,11aS)-6,10-Dimethyl-1-(6-methyl-4-(trifluoromethyl)pyridin-2-yl)-5-((7-methyl-5,6,7,8-tetrahydroimidazo[1,2-a]pyrazin-2-yl)methyl)-1,3a,4,5,10,11a-hexahydro-2H-benzo[b]pyrrolo[2,3-f][1,4]diazocine-2,11(3H)-dione] was 0.258 nM. Take `Cc1cc(C(F)(F)F)cc(N2C(=O)C[C@@H]3CN(Cc4ccc5c(c4)CCN(C)C5)c4c(F)cccc4N(C)C(=O)[C@H]32)n1` [Example 122, (3aR,11aS)-6-Fluoro-10-methyl-5-((2-methyl-1,2,3,4-tetrahydroisoquinolin-6-yl)methyl)-1-(6-methyl-4-(trifluoromethyl)pyridin-2-yl)-1,3a,4,5,10,11a-hexahydro-2H-benzo[b]pyrrolo[2,3-f][1,4]diazocine-2,11(3H)-dione]: the affinity, expressed as Ki, was 1.94 nM. The value for `Cc1cc(C(F)(F)F)cc(N2C(=O)C[C@@H]3CN(Cc4ccc5c(c4)CN(C)C5)c4c(F)cccc4N(C)C(=O)[C@H]32)n1` [Example 123, (3aR,11aS)-6-Fluoro-10-methyl-1-(6-methyl-4-(trifluoromethyl)pyridin-2-yl)-5-((2-methylisoindolin-5-yl)methyl)-1,3a,4,5,10,11a-hexahydro-2H-benzo[b]pyrrolo[2,3-f][1,4]diazocine-2,11(3H)-dione hydrochloride] was 2.2 nM; that for `Cc1cc(C(F)(F)F)cc(N2C(=O)C[C@@H]3CN(Cc4cccc(C5CN(C)C5)c4)c4c(F)cccc4N(C)C(=O)[C@H]32)n1` [Example 124, (3aR,11aS)-6-Fluoro-10-methyl-1-(6-methyl-4-(trifluoromethyl)pyridin-2-yl)-5-(3-(1-methylazetidin-3-yl)benzyl)-1,3a,4,5,10,11a-hexahydro-2H-benzo[b]pyrrolo[2,3-f][1,4]diazocine-2,11(3H)-dione] was 4.26 nM.

What is called Ki is the dissociation constant of the complex between target and ligand, obtained from inhibition or displacement.
